Results on two molecules are retold here after patent publication US6627760B1, “Amorphous compound” (AstraZeneca AB, priority 2001, dated 2003).

Series [1] is described as follows: Glass transition temperature by Differential Scanning Calorimetry (DSC). It is filed as physicochemical. The note with it: dry amorphous lisinopril. As for the experimental part:
Differential Scanning Calorimetry (DSC) was performed on approximately 0.5-3 mg sample, using a Mettler DSC820 instrument, according to standard methods, for example those described in Hohne et al. (1996) Differential scanning Calorimetry, Springer, Berlin.
(DSC measures the heat that a sample takes up or gives off during a temperature scan.)

Series [2] can be described thus: Glass transition temperature by Thermal Mechanical Analysis (TMA). The format is physicochemical. The note with it: heating rate 10° C./min, 30-160° C. As for the experimental part: The method involves compressing 140 mg of material in a punch and die (3 mm) to 2 KN. The compressed pellet was then placed on the TMA and the 1.1 mm probe placed on the top face. A heating rate of 10° C./min was used and the sample was heated from 30-160° C.

For series [3] the following is noted: cited from earlier work.

Each structure is given as a SMILES string. Some results are limits rather than exact numbers.

Take `NCCCC[C@H](NC(CCc1ccccc1)C(=O)O)C(=O)N1CCC[C@H]1C(=O)O` (stereo partly drawn) [amorphous lisinopril, (S)-1-[N^2-(1-carboxy-3-phenylpropyl]-L-lysyl]-L-proline]: the “glass transition temperature (Tg) by DSC” value in series [1] amounted to 125 °C. The “glass transition temperature by TMA” value in series [2] is 129 °C.
Consider `NCCCC[C@H](NC(CCc1ccccc1)C(=O)O)C(=O)N1CCC[C@H]1C(=O)O` (stereo partly drawn) [lisinopril, (S)-1-[N^2-(1-carboxy-3-phenylpropyl]-L-lysyl]-L-proline], for which the “effective half-life of accumulation” value in series [3] (multiple dosing) is recorded as “about 12.6 hours”. The “time to peak serum concentrations” value in series [3] (oral administration) was not above 7 h.
